Activity calls are given as the source filed them. The calls are words filed in the database; no cut-off is given here.
Experiments:
[1] = system: RKO; assay: Antiproliferative activity against human RKO cells assessed as inhibition of cell growth incubated for 72 hrs by SRB assay; type: functional, cell-based
[2] = system: RKO; assay: Induction of cell cycle arrest in human RKO cells assessed as accumulation at sub-G1 phase at 1.25 uM after 24 hrs by RNase A/propidium iodide staining based flow cytometric analysis (reference value: 0.40 %); type: functional
[3] = system: RKO; assay: Induction of cell cycle arrest in human RKO cells assessed as accumulation at G0/G1 phase at 1.25 uM after 24 hrs by RNase A/propidium iodide staining based flow cytometric analysis (reference value: 51.49 %); type: functional
[4] = system: RKO; assay: Induction of cell cycle arrest in human RKO cells assessed as accumulation at G2/M phase at 1.25 uM after 24 hrs by RNase A/propidium iodide staining based flow cytometric analysis (reference value: 24.38 %); type: functional
[5] = system: RKO; assay: Induction of cell cycle arrest in human RKO cells assessed as accumulation at sub-G1 phase at 2.5 uM after 24 hrs by RNase A/propidium iodide staining based flow cytometric analysis (reference value: 0.40 %); type: functional
[6] = system: RKO; assay: Induction of cell cycle arrest in human RKO cells assessed as accumulation at G2/M phase at 2.5 uM after 24 hrs by RNase A/propidium iodide staining based flow cytometric analysis (reference value: 24.38 %); type: functional
[7] = system: RKO; assay: Induction of cell cycle arrest in human RKO cells assessed as accumulation at sub-G1 phase at 5 uM after 24 hrs by RNase A/propidium iodide staining based flow cytometric analysis (reference value: 0.40 %); type: functional
[8] = system: RKO; assay: Induction of cell cycle arrest in human RKO cells assessed as upregulation of phospho-Chk1 expression at 1.25 to 5 uM measured after 24 hrs by Western blot analysis; type: functional, cell-based; conditions: dose 1.25-5 µM
[9] = system: RKO; assay: Induction of cell cycle arrest in human RKO cells assessed as inactivation of Cdc25C protein at 1.25 to 5 uM measured after 24 hrs by Western blot analysis; type: functional, cell-based; conditions: dose 1.25-5 µM
[10] = system: RKO; assay: Induction of cell cycle arrest in human RKO cells assessed as upregulation of p-Cdc2 at Y15 residue expression measured after 24 hrs by Western blot analysis; type: functional, cell-based; conditions: dose 1.25-5 µM
[11] = system: RKO; assay: Induction of cell cycle arrest in human RKO cells assessed as accumulation at sub-G1 phase at 2.5 uM after 12 hrs by RNase A/propidium iodide staining based flow cytometric analysis (reference value: 0.89 %); type: functional
[12] = system: RKO; assay: Induction of cell cycle arrest in human RKO cells assessed as accumulation at G2/M phase at 2.5 uM after 12 hrs by RNase A/propidium iodide staining based flow cytometric analysis (reference value: 24.63 %); type: functional
[13] = system: RKO; assay: Induction of cell cycle arrest in human RKO cells assessed as accumulation at G0/G1 phase at 2.5 uM after 24 hrs by RNase A/propidium iodide staining based flow cytometric analysis (reference value: 60.58 %); type: functional
[14] = system: RKO; assay: Induction of cell cycle arrest in human RKO cells assessed as accumulation at G2/M phase at 2.5 uM after 24 hrs by RNase A/propidium iodide staining based flow cytometric analysis (reference value: 24.63 %); type: functional
[15] = system: RKO; assay: Induction of cell cycle arrest in human RKO cells assessed as accumulation at sub-G1 phase at 2.5 uM after 36 hrs by RNase A/propidium iodide staining based flow cytometric analysis (reference value: 0.89 %); type: functional
[16] = system: RKO; assay: Induction of cell cycle arrest in human RKO cells assessed as accumulation at G0/G1 phase at 2.5 uM after 36 hrs by RNase A/propidium iodide staining based flow cytometric analysis (reference value: 60.58 %); type: functional
[17] = system: RKO; assay: Induction of cell cycle arrest in human RKO cells assessed as accumulation at S phase at 2.5 uM after 36 hrs by RNase A/propidium iodide staining based flow cytometric analysis (reference value: 13.33 %); type: functional
[18] = system: RKO; assay: Induction of cell cycle arrest in human RKO cells assessed as accumulation at sub-G1 phase at 2.5 uM after 48 hrs by RNase A/propidium iodide staining based flow cytometric analysis (reference value: 0.89 %); type: functional
[19] = system: RKO; assay: Induction of cell cycle arrest in human RKO cells assessed as accumulation at S phase at 2.5 uM after 48 hrs by RNase A/propidium iodide staining based flow cytometric analysis (reference value: 13.33 %); type: functional
[20] = system: RKO; assay: Induction of cell cycle arrest in human RKO cells assessed as accumulation at G2/M phase at 2.5 uM after 48 hrs by RNase A/propidium iodide staining based flow cytometric analysis (reference value: 24.63 %); type: functional
[21] = system: RKO; assay: Induction of apoptosis in human RKO cells assessed as increase in cleaved caspase 9 expression at 2.5 uM measured upto 48 hrs by Western blotting analysis; type: functional, cell-based; conditions: time hrs <=48
[22] = system: RKO; assay: Induction of apoptosis in human RKO cells assessed as increase in cleaved PARP expression at 2.5 uM measured upto 48 hrs by Western blotting analysis; type: functional, cell-based; conditions: time hrs <=48
[23] = system: RKO; assay: Induction of apoptosis in human RKO cells assessed as total apoptotic cells at 2.5 uM after 48 hrs by Annexin V/PI staining based flow cytometric analysis; type: functional
[24] = system: RKO; assay: Induction of apoptosis in human RKO cells assessed as total apoptotic cells at 10 uM after 48 hrs by Annexin V/PI staining based flow cytometric analysis; type: functional
[25] = system: RKO; assay: Induction of apoptosis in human RKO cells assessed as modulation of p53 expression level after 48 hrs by Western blotting analysis; type: functional, cell-based; conditions: dose 2.5-10 µM
[26] = system: RKO; assay: Induction of apoptosis in human RKO cells assessed as modulation of cleaved caspase 9 expression level after 48 hrs by Western blotting analysis; type: functional, cell-based; conditions: dose 2.5-10 µM
[27] = system: RKO; assay: Induction of apoptosis in human RKO cells assessed as modulation of cleaved caspase 3 expression level after 48 hrs by Western blotting analysis; type: functional, cell-based; conditions: dose 2.5-10 µM
[28] = system: RKO; assay: Induction of apoptosis in human RKO cells assessed as modulation of cleaved PARP expression level after 48 hrs by Western blotting analysis; type: functional, cell-based; conditions: dose 2.5-10 µM
[29] = system: RKO; assay: Antiproliferative activity against human RKO cells over expressing GAPDH at 1 to 8 uM after 72 hrs by SRB assay; type: functional, cell-based; conditions: dose 1-8 µM
[30] = system: RKO; assay: Suppression of GAPDH protein expression in human RKO cells after 24 hrs by Western blotting analysis; type: functional, cell-based; conditions: dose 2.5-10 µM
[31] = system: HCT-116; assay: Antiinvasive activity against human HCT116 cells implanted in nude mouse assessed as inhibition of liver cells invasion after 24 hrs by transwell assay; type: functional, cell-based; conditions: dose 3-6 µM
[32] = system: HCT-116; assay: Upregulation of E-cadherin expression in […] at 3 to 6 uM after 24 hrs by Western blotting analysis; type: functional, cell-based; conditions: dose 3-6 µM
[33] = system: HCT-116; assay: Downregulation of Snail expression in […] at 3 to 6 uM after 24 hrs by Western blotting analysis; type: functional, cell-based; conditions: dose 3-6 µM

How did the Activity [1] turn out when `CCCCCCCCC[C@@H](O)CC(=O)N[C@@H](CC(N)=O)C(=O)N[C@@H](CCC(N)=O)C(=O)N[C@H](CC(=O)c1cc(C)cc(O)c1C(=O)c1c(O)cccc1O)CC(C)C` was run?
The Activity was “Dose-Dependent Effect”.

And the IC50 [1]?
Its IC50 is 930 nM.

And the Activity [2]?
The Activity was 0.41%.

And the Activity [3]?
The Activity was 46.96%.

And the Activity [4]?
The Activity was 29.42%.

And the Activity [5]?
The Activity was 0.56%.

What about the Activity [6] of the same compound?
The Activity was 44.01%.

And the Activity [7]?
Its Activity is 1.1%.

And the Activity [8]?
The Activity was “Active”.

And the Activity [9]?
Its Activity is “Active”.

What about the Activity [10] of the same compound?
The Activity was “Dose-Dependent Effect”.

What about the Activity [11] of the same compound?
The Activity was 0.88%.

What about the Activity [12] of the same compound?
The Activity was 27.91%.

And the Activity [13]?
Its Activity is 33.93%.

And the Activity [14]?
Its Activity is 48.54%.

What about the Activity [15] of the same compound?
The Activity was 3.74%.

And the Activity [16]?
The Activity was 22.38%.

And the Activity [17]?
Its Activity is 10.45%.

And the Activity [18]?
Its Activity is 17.94%.

And the Activity [19]?
The Activity was 10.43%.

And the Activity [20]?
The Activity was 41.66%.

What about the Activity [21] of the same compound?
Its Activity is “Active”.

What about the Activity [22] of the same compound?
Its Activity is “Active”.

And the Activity [23]?
The Activity was 15.14%.

What about the Activity [24] of the same compound?
Its Activity is 51.04%.

What about the Activity [25] of the same compound?
Its Activity is “Dose-Dependent Effect”.

What about the Activity [26] of the same compound?
The Activity was “Dose-Dependent Effect”.

What about the Activity [27] of the same compound?
Its Activity is “Dose-Dependent Effect”.

And the Activity [28]?
The Activity was “Dose-Dependent Effect”.

What about the Activity [29] of the same compound?
The Activity was “Active”.

What about the Activity [30] of the same compound?
The Activity was “Dose-Dependent Effect”.

And the inhibition [31]?
The inhibition was “Dose-Dependent Effect”.

What about the Activity [32] of the same compound?
The Activity was “Active”.

What about the Activity [33] of the same compound?
Its Activity is “Active”.

— ChEMBL document CHEMBL4811222, “Antitumor Activity of Asperphenin B by Induction of Apoptosis and Regulation of Glyceraldehyde-3-phosphate Dehydrogenase in Human Colorectal Cancer Cells” (J Nat Prod, 2021)
